{
  "source": "patent US20080038809A1",
  "about": "“ISOLATED LECTIN POLYPEPTIDES CONSISTING OF TRUNCATED […] UDP-GalNAc:POLYPEPTIDE N- ACETYLGALACTOSAMINYLTRANSFERASES” (GLYCOZYM APS, priority 2002, published 2008)",
  "key": {"[1]": {"system": "MUC5AC in HT-29 MTX cells", "test": "MUC5AC secretion, SDS-PAGE western blot of media with LUM5-1 (FIG. 17)", "format": "cell-based, human", "settings": "5 mM, continuous culture, media at 14 days", "protocol": "FIG. 17 illustrates SDS-PAGE Western analysis of MUC5AC secretion from HT29MTX cells using polyclonal anti-MUC5AC antibody LUM5-1. In order to evaluate GalNAcβ-benzyl as an inhibitor of mucin glycosylation and secretion we used the HT-29 metotrexate (MTX) cultured colon carcinoma cells of mucin secreting phenotype. HT-29 MTX cells have a goblet cell like phenotype with constitutive production of MUC5AC. Cells were continuously grown up to 21 days in the presence of 5 mM GalNAcα-benzyl, 5 mM GalNAcβ-benzyl, 5 mM GlcNAcα-benzyl and without inhibitor. […] In striking contrast, MUC5AC was not detected in the media from cells treated with GalNAcα-benzyl (Lane 3) or GalNAcβ-benzyl (Lane 4). Results shown are from media collected at 14 days.\nIn order to evaluate GalNAcβ-benzyl as an inhibitor of mucin glycosylation and secretion we used the cultured colon carcinoma cells of mucin secreting phenotypes: HT-29 metotrexate (MTX) cells selected from the HT-29 cell line by culture in the presence of MTX (kind gift from G. Huet, France). The HT-29 MTX cells were selected to yield a goblet cell like phenotype with constitutive production of MUC5AC. In order to ensure proper goblet cell differentiation the HT29MTX cell line were continuously grown up to 21 days in the presence of 5 mM GalNAcα-benzyl, 5 mM GalNAcβ-benzyl, 5 mM GlcNAcα-benzyl and without inhibitor using culture conditions as described in Hennebicq-Reig et al. (Permanent exposure of mucin-secreting HT-29 cells to benzyl-N-acetyl-alpha-D-galactosaminide induces abnormal O-glycosylation of mucins and inhibits constitutive and stimulated MUC5AC secretion. Biochem J. 1998; 334:283-95). […] Furthermore the viscosity of the media from cells with and without inhibitor was evaluated using viscosity micro-measurement."}, "[2]": {"system": "MUC1 in CHO1d1D/MUC1F-clone2 cells", "test": "MUC1 expression in cell lysates, immunoprecipitation and SDS-PAGE western blot (FIGS. 12-15)", "format": "cell-based, Chinese Hamster", "settings": "2 mM, 48 hours", "protocol": "FIG. 12 is an SDS-PAGE Western analysis of GalNAcα-benzyl inhibition of MUC1 expression in CHO 1d1D cells stably transfected with a full coding MUC1 construct. […] Cells were further treated with 2 mM GalNAcα-benzyl (lanes 1, 4, 7, 10), 2 mM GlcNAcα-benzyl (lanes 2, 5, 8, 11) or no inhibitor (lanes 3, 6, 9, 12). Cells were washed and lysed at 24 or 48 hours and the lysates subjected to immunoprecipitation with monoclonal antibody HMFG2, which broadly recognize MUC1 glycoforms. Immunoprecipitates were analysed by SDS-PAGE and western blot using HMFG2 antibody to detect MUC1 expression. Lane M indicates molecular markers with assigned mw. Lane C includes a control MUC1 180-mer tandem repeat peptide which has been GalNAc-glycosylated with 3 moles GalNAc per repeat using GalNAc-T2. The sharp bands migrating at 100-200 kd are immunoglobulins indicated by IgG.\nCells were further treated with 2 mM GalNAcα-benzyl (lanes 1, 4, 7, 10), 2 mM GalNAcβ-benzyl (lanes 2, 5, 8, 11) or 2 mM GlcNAcα-benzyl (lanes 3, 6, 9, 12). Cells were washed and lysed at 36 hours and the lysates subjected to immunoprecipitation with monoclonal antibodies HMFG2 (lanes 1-6) or 5E5 (lanes 7-12). Immunoprecipitates were analysed by SDS-PAGE and western blot using HMFG2 antibody. Lanes M and C as described in legend to FIG. 7.\nWe next analysed the expression of MUC1 produced by CHO1d1D/MUC1F-clone2 cells by SDS-PAGE western analysis. […] Cells were further treated with 2 mM GalNAcα-benzyl, GlcNAcα-benzyl or no inhibitor. Cells were washed and lysed at 24 or 48 hours and the lysates subjected to immunoprecipitation with monoclonal antibody HMFG2, which broadly recognize MUC1 glycoforms. Immunoprecipitates were analysed by SDS-PAGE and western blot using HMFG2 antibody to detect MUC1 expression. […] In striking contrast, treatment with GalNAcα-benzyl had significant effect after 48 hours. […] This indicates some heterogeneity in glycosylation.\nAs shown in Examples 2 and 3, polypeptide GalNAc-transferases contain lectin domains with binding properties for GalNAc-peptides including GalNAc-MUC1 peptides. […] GalNAcβ-benzyl, the β-anomeric configuration of GalNAc-benzyl (there is a β linkage between the N-acetylgalactosamine and the benzyl ring), was custom synthesized by Alberta Research Council (Canada), and its structure was confirmed by mass spectrometry and ^1H-NMR. […] Cells were then treated with 2 mM GalNAcα-benzyl, GalNAcβ-benzyl, or GlcNAcα-benzyl as control (GlcNAcα-benzyl was shown in Example 4 to have no effect). Cells were washed and lysed as described above after 36 hours and the lysates subjected to immunoprecipitation with anti-MUC1 monoclonal antibodies HMFG2 or 5E5. […] FIG. 15 illustrates the same experiment as in FIG. 14 except that the detection antibody is 5E5 and only Tn and STn MUC1 glycoforms are visualised."}, "[3]": {"system": "GalNAc-T2 and -T4 secreted soluble enzymes as well as lectin domains", "test": "Inhibition of GalNAc-transferase lectin binding to GalNAc-glycopeptides, statements on GalNAc-T2 and -T4 together", "design": "species or system human", "settings": "enzymes and isolated lectins", "protocol": "(§1) Direct binding ELISA assay was developed as follows: Polystyrene microtiter plates (Maxisorb, Nunc, Denmark) were coated with peptides or enzymatically glycosylated glycopeptides in PBS overnight at 4° C. Plates were washed and blocked with 0.1% Tween20 and 0.2% BSA in PBS for 1 h at room temperature, followed by incubation with biotinylated proteins in PBS with 0.05% Tween20 for 2 h at room temperature. After four washes with PBS, plates were incubated with 1:2,000 dilution streptavidin-HRP (Sigma) in PBS for 30 min at room temperature and washed four times with PBS. Development was performed with 0.5 mg/ml o-phenylenediamine and 0.02% H2O2 at room temperature for 15 min, and reaction stopped by adding 100 μl/well of 0.5 N H2SO4. Competitive inhibition assays were done at end-point titers of GalNAc-transferase proteins with one hour preincubations with inhibitor.\nLectins and antibodies to carbohydrates usually recognize the anomeric configuration of the sugar structures they bind.\n(§2) Inhibition experiments were used to further define the binding specificity of GalNAc-T2 and -T4 secreted soluble enzymes as well as lectin domains compared to Helix Pomatia lectin (Table IV)."}, "[4]": {"target": "T1, secreted soluble GalNAc-T4 (Homo sapiens, UniProt Q8N4A0)", "T1 construct": "6xHis (N); thrombin cleavage site (N); T7 antibody site (N); made in house; host or cells: baculovirus (pAcGP67A), High Five insect cells", "T1 sequence (Q8N4A0 36-578 limits assumed)": "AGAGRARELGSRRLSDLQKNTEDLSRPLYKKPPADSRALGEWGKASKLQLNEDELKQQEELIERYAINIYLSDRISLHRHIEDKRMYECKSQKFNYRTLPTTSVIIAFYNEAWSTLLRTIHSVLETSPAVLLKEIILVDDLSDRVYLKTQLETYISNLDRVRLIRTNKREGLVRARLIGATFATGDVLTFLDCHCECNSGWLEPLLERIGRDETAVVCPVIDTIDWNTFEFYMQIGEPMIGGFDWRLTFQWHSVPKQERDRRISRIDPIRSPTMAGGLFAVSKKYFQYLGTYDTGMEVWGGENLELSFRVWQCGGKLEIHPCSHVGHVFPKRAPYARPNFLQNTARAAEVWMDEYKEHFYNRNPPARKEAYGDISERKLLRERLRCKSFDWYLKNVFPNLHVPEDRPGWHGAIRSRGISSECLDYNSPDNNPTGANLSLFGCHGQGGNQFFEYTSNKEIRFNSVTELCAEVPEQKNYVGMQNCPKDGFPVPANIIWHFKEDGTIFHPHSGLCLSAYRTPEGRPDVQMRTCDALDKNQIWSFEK", "test": "Inhibition of secreted soluble GalNAc-T4 (sT4) binding to GalNAc-MUC1 glycopeptide, ELISA", "protocol": "as §1, §2"}, "GalNAc-T4 lectin domain": {"target": "T2, GalNAc-T4 lectin domain (Homo sapiens, UniProt Q8N4A0)", "T2 construct": "comprises amino acid residues 405-578 of GALNT4; made in house; host or cells: baculovirus (pAcGP67-A), virus made in Sf9, protein produced in High Five insect cells", "T2 sequence (Q8N4A0 405-578)": "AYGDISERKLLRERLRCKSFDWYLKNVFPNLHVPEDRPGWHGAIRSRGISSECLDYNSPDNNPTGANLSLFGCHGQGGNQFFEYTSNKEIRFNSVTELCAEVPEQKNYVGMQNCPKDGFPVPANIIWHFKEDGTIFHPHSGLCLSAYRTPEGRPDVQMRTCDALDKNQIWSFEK", "test": "Inhibition of GalNAc-T4 lectin domain (T4ld) binding to GalNAc-MUC1 glycopeptide, ELISA", "protocol": "as §1\n(§3) In binding studies using lectins without biotinylation antibodies to the HIS-tag and the T7-tag, or in some experiments antibodies raised to GalNAc-T2 and -T4 enzymes were used to detect binding.\nas §2"}, "GalNAc-T2 lectin domain": {"target": "T3, GalNAc-T2 lectin domain (Homo sapiens, UniProt Q10471)", "T3 construct": "comprises amino acid residues 408-571 of GALNT2; made in house; host or cells: baculovirus (pAcGP67-A), virus made in Sf9, protein produced in High Five insect cells", "T3 sequence (Q10471 408-571)": "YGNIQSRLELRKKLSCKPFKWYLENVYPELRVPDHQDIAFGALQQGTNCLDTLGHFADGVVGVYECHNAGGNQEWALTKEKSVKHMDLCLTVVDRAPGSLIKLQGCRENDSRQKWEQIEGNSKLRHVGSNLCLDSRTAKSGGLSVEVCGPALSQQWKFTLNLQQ", "test": "Inhibition of GalNAc-T2 lectin domain (T2ld) binding to GalNAc-MUC1 glycopeptide, ELISA", "protocol": "as §1, §3, §2"}, "[5]": {"target": "T4, secreted soluble GalNAc-T2 (Homo sapiens, UniProt Q10471)", "T4 construct": "6xHis (N); thrombin cleavage site (N); T7 antibody site (N); made in house; host or cells: baculovirus (pAcGP67A), High Five insect cells", "T4 sequence (Q10471 52-571 limits assumed)": "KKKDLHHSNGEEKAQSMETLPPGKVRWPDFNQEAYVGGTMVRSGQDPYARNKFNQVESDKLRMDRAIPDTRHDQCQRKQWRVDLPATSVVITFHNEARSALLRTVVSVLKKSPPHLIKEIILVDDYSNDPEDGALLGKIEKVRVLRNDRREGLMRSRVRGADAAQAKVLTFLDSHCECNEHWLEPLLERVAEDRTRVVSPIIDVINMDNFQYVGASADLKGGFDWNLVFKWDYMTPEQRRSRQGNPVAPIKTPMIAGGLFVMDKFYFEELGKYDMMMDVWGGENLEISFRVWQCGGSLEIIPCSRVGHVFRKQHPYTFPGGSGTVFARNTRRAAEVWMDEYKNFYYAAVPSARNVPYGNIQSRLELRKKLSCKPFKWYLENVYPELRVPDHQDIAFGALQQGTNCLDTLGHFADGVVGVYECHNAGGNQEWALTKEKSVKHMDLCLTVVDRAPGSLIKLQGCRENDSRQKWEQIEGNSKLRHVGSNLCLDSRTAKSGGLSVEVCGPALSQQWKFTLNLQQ", "test": "Inhibition of secreted soluble GalNAc-T2 (sT2) binding to GalNAc-MUC1 glycopeptide, ELISA", "protocol": "as §1, §2"}, "GalNAc-T4": {"target": "GalNAc-T4 (Homo sapiens, UniProt Q8N4A0)", "sequence (Q8N4A0 whole entry)": "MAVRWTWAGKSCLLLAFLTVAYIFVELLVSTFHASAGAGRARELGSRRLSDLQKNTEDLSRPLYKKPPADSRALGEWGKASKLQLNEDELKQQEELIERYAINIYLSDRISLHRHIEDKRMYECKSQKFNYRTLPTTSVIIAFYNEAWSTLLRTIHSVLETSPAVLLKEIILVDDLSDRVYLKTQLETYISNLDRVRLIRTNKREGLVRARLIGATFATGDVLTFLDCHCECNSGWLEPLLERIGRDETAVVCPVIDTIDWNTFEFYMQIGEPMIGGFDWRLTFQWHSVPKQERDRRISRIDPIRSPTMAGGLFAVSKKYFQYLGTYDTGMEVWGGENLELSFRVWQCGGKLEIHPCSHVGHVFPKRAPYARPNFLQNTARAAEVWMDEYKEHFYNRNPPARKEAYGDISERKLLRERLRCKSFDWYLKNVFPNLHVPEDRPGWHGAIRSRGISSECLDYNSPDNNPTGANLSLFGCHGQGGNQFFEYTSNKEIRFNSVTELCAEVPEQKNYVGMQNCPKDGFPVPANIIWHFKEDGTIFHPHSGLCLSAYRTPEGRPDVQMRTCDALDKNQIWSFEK", "settings": "230 mM; cited from earlier work"}, "[6]": {"target": "T5, human GalNAc-T2 (UDP-GalNAc:polypeptide N-acetylgalactosaminyltransferase T2) isolated truncated lectin domain (T2ld), HIS-tagged, amino acid residues 408-571 o (Homo sapiens, UniProt Q10471)", "T5 sequence (Q10471 408-571)": "T3 sequence (Q10471 408-571)", "format": "binding", "excerpt": "(§4) In order to minimize the size and functional complexity of GalNAc-transferase lectins to be used as probes for binding studies, we used multiple sequence alignment analysis to predict and design suitable expression constructs for isolated lectin domains (FIG. 2). In the present invention a direct binding assay was developed using isolated lectin domains of GalNAc-T4 and -T2 with minimal size (FIG. 5). […] The lectin Helix Pomatia (HP) was used as a control plant lectin with known binding specificity for […].\nas §1, §3, §2\n(§5) The ligand target used in this Example is a GalNAc-MUC1 glycopeptide produced enzymatically from synthetic peptides."}, "[7]": {"target": "human GalNAc-T4 (UDP-GalNAc:polypeptide N-acetylgalactosaminyltransferase T4) isolated truncated lectin domain (T4ld), HIS-tagged, amino acid residues 405-578 o (Homo sapiens, UniProt Q8N4A0)", "sequence (Q8N4A0 405-578)": "as the sequence (Q8N4A0 405-578) above", "test": "biochemical", "format": "binding", "settings": "isolated lectin domain", "excerpt": "as §4, §1, §3, §2, §5"}},
  "note": "“Also recorded” adds a separate entry of the source.",
  "data": [
    {"smiles": "CC(=O)N[C@H]1[C@@H](OCc2ccccc2)O[C@H](CO)[C@@H](O)[C@@H]1O", "note": "[BzlαGlcNAc]", "values": [
      {"measurement": "MUC5AC in media (secretion)", "setting": "[1]", "result": "detected"},
      {"measurement": "MUC1 expression", "setting": "[2]; HMFG2 blot, cells grown in GalNAc or Gal and GalNAc, listed as GlcNAcα-benzyl", "result": "same glycoforms at similar intensity; also recorded: no effect"},
      {"measurement": "SDS-PAGE migration of MUC1 (O-glycosylation)", "setting": "[2]; cells grown in Gal and GalNAc", "result": "no effect"}
    ]},
    {"smiles": "CC(=O)N[C@H]1C(O)O[C@H](CO)[C@H](O)[C@@H]1O", "note": "(stereo partly drawn) [GalNAc, N-acetylgalactosamine]", "values": [
      {"measurement": "inhibition of GalNAc-T2 and -T4 lectin mediated binding, in words", "setting": "[3]", "result": "selectively inhibited"},
      {"measurement": "IC50", "setting": "[4]", "result": 1, "unit": "mM"},
      {"measurement": "IC50", "setting": "GalNAc-T4 lectin domain", "result": 5, "unit": "mM"},
      {"measurement": "IC50", "setting": "GalNAc-T2 lectin domain", "result": 37, "unit": "mM"},
      {"measurement": "IC50", "setting": "[5]", "result": 15, "unit": "mM"},
      {"measurement": "inhibition of GalNAc-glycopeptide activity of GalNAc-T4", "setting": "GalNAc-T4", "result": "selective inhibition"}
    ]},
    {"smiles": "OC[C@H]1OC(O)[C@H](O)[C@@H](O)[C@H]1O", "note": "(stereo partly drawn) [Gal]", "values": [
      {"measurement": "inhibition of GalNAc-T2 lectin domain binding (in words)", "setting": "[6]", "result": "no inhibitory effect"},
      {"measurement": "inhibition of GalNAc-T4 lectin domain binding (in words)", "setting": "[7]", "result": "no inhibitory effect"}
    ]},
    {"smiles": "OC[C@H]1O[C@@H](O[C@H]2[C@H](O)[C@@H](O)C(O)O[C@@H]2CO)[C@H](O)[C@@H](O)[C@H]1O", "note": "(stereo partly drawn) [Lactose]", "values": [
      {"measurement": "IC50", "setting": "[4]", "result": "> 100", "unit": "mM"},
      {"measurement": "IC50", "setting": "GalNAc-T4 lectin domain", "result": "> 100", "unit": "mM"},
      {"measurement": "IC50", "setting": "GalNAc-T2 lectin domain", "result": "> 100", "unit": "mM"},
      {"measurement": "IC50", "setting": "[5]", "result": "> 100", "unit": "mM"}
    ]}
  ]
}
